Data as given in paper PMC10870435, “A novel complement C3 inhibitor CP40-KK protects against experimental pulmonary arterial hypertension via an inflammasome NLRP3 associated pathway” (Journal of Translational Medicine, 2024).
Bridge positions count the residues as written; N and C are the ends. Square brackets hold non-standard residues; d marks the D form. Peptide text beside a SMILES is read from it. Trp(1-Me) = Cn1cc(C[C@H](N)C(=O)O)c2ccccc21; NMeI = CC[C@H](C)[C@H](NC)C(=O)O; Sar = CNCC(=O)O

What was measured:
rat C3 = experiment: ELISA, direct binding of plasma C3 to coated peptide; conditions: peptide coated on ELISA plate, rat plasma dilutions, anti-C3 antibody, OD 450 nm
Description: CP40-KK and its control peptide were dissolved in coating buffer at different concentration and then added to wells of ELISA plate as designed. The coated plate was incubated at 4 °C overnight. Then the plate was incubated with plasma with the indicated dilution at 37 °C for 2 h. Next, the plate was incubated with the C3 antibody (1:2000, MP biomedicals, Irvine, CA, USA) at 37 °C for 2 h. Then the plate was washed for 3 times and incubated with corresponding HRP conjugated secondary antibodies (1:2000, Abcam, Cambridge, UK) at 37° for 1 h. Finally, TMB substrate was added to each well for indicated time at 37 °C and then the stop solution was added to stop the TMB reaction. OD values were measured at 450 nm using a microplate reader (Bio-tek, Vermont, USA). The coating buffer, wash buffer, TMB substrate, and stop solution were all bought from Boster Biological Technology (Wuhan, China).
CP40-KK and its control peptide were dissolved in coating buffer at different concentrations and then added to wells of ELISA plate as designed. The coated plate was incubated at 4°C overnight. After removing the coating buffer from the wells, the plate was washed using wash buffer 3 times. Then the plate was incubated with plasma with the indicated dilution at 37°C for 2h. […] OD values were measured at 450nm using a microplate reader (Bio-tek, Vermont, USA). […]

[1] = system: pulmonary vascular remodeling markers (α-SMA, PCNA); experiment: Lung α-SMA immunohistochemistry and PCNA western blot in PAH rats; assay type: in vivo, rat; conditions: MCT + CP40-KK vs MCT group
Description: In the current study, two animal experiments were conducted successively. 30 rats were randomly divided into two groups (control group and MCT group, n = 15 per group) in the first experiment. MCT group rats received a single intraperitoneally injection of MCT (40 mg/kg) on day 1 to induce PAH while control group rats received an equivoluminal saline injection intraperitoneally. For the second animal experiment, the rats were assigned into four groups (control group, MCT group, CP40-KK group, and MCT + CP40-KK group, n = 15 per group). […]
After hemodynamic measurements, the lungs were perfused with cold phosphate-buffered saline (PBS) and fixed in 4% formaldehyde for 24 h. […] Immunolabels were detected with 3, 3-Diaminobenzidine (DAB), after which the nuclei were counterstained with hematoxylin. […] For quantification analysis, the mean integrated optical density (IOD) for immunohistochemistry was determined using Image J software (National Institutes of Health, Bethesda, MD).
(§1) Proteins were collected from the fresh frozen-rat lung tissues using RIPA lysis buffer. Protein concentration was quantified using a BCA reagent. […] To compare and quantify levels of proteins, the density of each band was measured using Image J software. Equal loading for total cell or tissue lysates was determined by β-Actin western blot.

NLRP3 inflammasome = experiment: Lung homogenate western blot of NF-κB p65 / NLRP3 inflammasome pathway in PAH rats; assay type: in vivo, rat; conditions: lung homogenates, MCT + CP40-KK vs MCT, n = 6 per group
Description: In the current study, two animal experiments were conducted successively. 30 rats were randomly divided into two groups (control group and MCT group, n = 15 per group) in the first experiment. MCT group rats received a single intraperitoneally injection of MCT (40 mg/kg) on day 1 to induce PAH while control group rats received an equivoluminal saline injection intraperitoneally. For the second animal experiment, the rats were assigned into four groups (control group, MCT group, CP40-KK group, and MCT + CP40-KK group, n = 15 per group). The control group was given the same volume of saline subcutaneously while the CP40-KK group rats only received CP40-KK (2 mg/kg) by subcutaneous injection from day 15 to day 28 continuously. The rats in the MCT group and MCT + CP40-KK group were received a single intraperitoneally injection of MCT (40 mg/kg) on day 1 and subcutaneously injected with either an equal volume of saline or CP40-KK (2 mg/kg) at day 15 to day 28 continuously. The dose selection of MCT and CP40-KK in our study was established based on previous studies.
Proteins were collected from the fresh frozen-rat lung tissues using RIPA lysis buffer. Protein concentration was quantified using a BCA reagent. Equal amounts of protein were electrophoretically separated on 10% SDS polyacrylamide gel, transferred to PVDF membranes, and probed with desired primary antibodies overnight at 4 °C. Membranes were then washed with TBST and incubated with anti-mouse IgG (1:5000) or anti-rabbit IgG (1:5000) horseradish peroxidase conjugated antibodies as indicated. […] To compare and quantify levels of proteins, the density of each band was measured using Image J software. Equal loading for total cell or tissue lysates was determined by β-Actin western blot.
as §1, with “blot^3,4.” for “blot.”

[2] = Plasma lipids and lung oxidative stress markers in PAH rats; assay type: in vivo, rat
Description: Blood samples were obtained from rats, and plasma lipid levels were measured with a total cholesterol assay kit and triglyceride assay kit (Nanjing Jiancheng Bioengineering Institute, Nanjing City, China). 2.5μL plasma or 2.5μL calibrator was added into 250μL working solution, and then incubated at 37 ℃ for 10 minutes. OD values were measured at 500nm using a microplate reader (Bio-tek, Vermont, USA).
Figure S2. The effect of CP40-KK on oxidative stress in the lungs of the PAH rats. Representative Western blots (A) and quantification (B) of the NOX1, Gp91phox, NOX4 and SOD2 in lung homogenates of rat (B; n=6 per group).

[3] = cited from earlier work
Excerpt: The selective C3 inhibitor CP40 has been found therapeutically effective in various diseases, but has yet not been tested in the PAH model. In the current study, we applied the newly identified CP40 analog, CP40-KK, with two more lysine attached to the C terminus, in the MCT-induced PAH rat model.

Q: With `CC[C@H](C)[C@H](NC(=O)[C@H](N)Cc1ccc(O)cc1)C(=O)N[C@H]1CSSC[C@@H](C(=O)N(C)[C@H](C(=O)N[C@@H](CCCCN)C(=O)N[C@@H](CCCCN)C(N)=O)[C@@H](C)CC)NC(=O)[C@H](CCCNC(=N)N)NC(=O)[C@H](Cc2c[nH]cn2)NC(=O)CN(C)C(=O)[C@H](Cc2c[nH]c3ccccc23)NC(=O)[C@H](CC(=O)O)NC(=O)[C@H](CCC(N)=O)NC(=O)[C@H](Cc2cn(C)c3ccccc23)NC(=O)[C@H](C(C)C)NC1=O` [CP40-KK] (H-[dY]ICV[Trp(1-Me)]QDW[Sar]HRC[NMeI]KK-NH2; disulfide 3-12 (inferred)) as the molecule, how does the “direct binding of rat C3 and CP40-KK (OD450)” value (rat C3) read?
A: specific binding

Q: And the “expression of α-SMA in walls of small pulmonary arteries” value ([1]; immunohistochemistry)?
A: reduced significantly

Q: And the “PCNA expression in lung homogenates” value ([1]; western blot, n = 6 per group)?
A: decreased

Q: And the “NF-κB subunit p65 phosphorylation” value (NLRP3 inflammasome)?
A: significantly block

Q: What about the NLRP3 inflammasome activation (NLRP3 inflammasome) of the same molecule?
A: significantly block

Q: What about the “production of proinflammatory cytokines IL-1β and IL-18” value (NLRP3 inflammasome) of the same molecule?
A: reduced

Q: What about the “effect on oxidative stress (NOX1, Gp91phox, NOX4, SOD2)” value ([2]; lung homogenates, western blot, Figure S2, n=6 per group) of the same molecule?
A: no effect

Q: And the “effect on lipid metabolism (triglyceride, cholesterol)” value ([2]; rat plasma, PAH model groups, Figure S1)?
A: no effect

Q: And the “improvement in solubility in comparison with parental peptide CP40” value ([3]; at physiological pH)?
A: > 200 fold

Q: And the “apparent clearance compared to CP40 (decreased)” value ([3]; non-human primates)?
A: ~2.6 fold

Q: What about the “maximum concentration compared to CP40 (higher)” value ([3]; non-human primates) of the same molecule?
A: twofold

Q: And the “terminal half-life compared to CP40 (higher)” value ([3]; non-human primates)?
A: fivefold
